Structures can show the parent of a compound that is named as a salt. Where two headings read alike, the source gives them in different places.
Experiments:
Experiment in all cases: AK assay 384-well format, Prestwick library screening
[1] = system: P. aeruginosa; assay type: cell-based, Pseudomonas aeruginosa; conditions: 50 μM final drug concentration; for fold induction at 50 µM: Pseudomonas aeruginosa, 3 h
[2] = system: K. pneumoniae; assay type: cell-based, Klebsiella pneumoniae; conditions: 50 μM final drug concentration; for fold induction at 50 µM: Klebsiella pneumoniae, 3 h
[3] = system: E. faecium; assay type: cell-based, Enterococcus faecium; conditions: 50 μM final drug concentration; for fold induction at 50 µM: Enterococcus faecium, 3 h
[4] = system: E. coli; assay type: cell-based, Escherichia coli; conditions: 50 μM final drug concentration; for fold induction at 50 µM: Escherichia coli, 3 h
[5] = system: A. baumannii strain 98-37-09; assay type: cell-based, Acinetobacter baumannii; conditions: 50 μM final drug concentration; for fold induction at 50 µM: Acinetobacter baumannii, 983709, 3 h
[6] = system: S. aureus strain USA300-0114; assay type: cell-based, Staphylococcus aureus; conditions: 50 μM final drug concentration; for fold induction at 50 µM: Staphylococcus aureus, USA300, 3 h
[7] = system: E. cloacae; assay type: cell-based, Enterobacter cloacae; conditions: 50 μM final drug concentration; for fold induction at 50 µM: Enterobacter cloacae, 3 h
[8] = 384-well format, cutoff for positive-scoring molecules 3-fold increase, read-out: AK-based Prestwick Library Screening Results, P. aeruginosa (increase in extracellular AK activity)
[9] = 384-well format, cutoff for positive-scoring molecules 3-fold increase, read-out: AK-based Prestwick Library Screening Results, K. pneumoniae (increase in extracellular AK activity)
[10] = 384-well format, cutoff for positive-scoring molecules 3-fold increase, read-out: AK-based Prestwick Library Screening Results, E. faecium (increase in extracellular AK activity)
[11] = 384-well format, cutoff for positive-scoring molecules 3-fold increase, read-out: AK-based Prestwick Library Screening Results, E. coli (increase in extracellular AK activity)
[12] = 384-well format, cutoff for positive-scoring molecules 3-fold increase, read-out: AK-based Prestwick Library Screening Results, A. baumannii (increase in extracellular AK activity)
[13] = 384-well format, cutoff for positive-scoring molecules 3-fold increase, read-out: AK-based Prestwick Library Screening Results, S. aureus (increase in extracellular AK activity)
[14] = 384-well format, cutoff for positive-scoring molecules 3-fold increase, read-out: AK-based Prestwick Library Screening Results, E. cloacae (increase in extracellular AK activity)
[15] = planktonic, cutoff for positive 3-fold increase, read-out: AK-based Prestwick Library Screening Results, P. aeruginosa (fold increase in extracellular AK activity)
[16] = planktonic, cutoff for positive 3-fold increase, read-out: AK-based Prestwick Library Screening Results, K. pneumoniae (fold increase in extracellular AK activity)
[17] = planktonic, cutoff for positive 3-fold increase, read-out: AK-based Prestwick Library Screening Results, E. faecium (fold increase in extracellular AK activity)
[18] = planktonic, cutoff for positive 3-fold increase, read-out: AK-based Prestwick Library Screening Results, E. coli (fold increase in extracellular AK activity)
[19] = planktonic, cutoff for positive 3-fold increase, read-out: AK-based Prestwick Library Screening Results, A. baumannii (fold increase in extracellular AK activity)
[20] = planktonic, cutoff for positive 3-fold increase, read-out: AK-based Prestwick Library Screening Results, S. aureus (fold increase in extracellular AK activity)
[21] = planktonic, cutoff for positive 3-fold increase, read-out: AK-based Prestwick Library Screening Results, E. cloacae (fold increase in extracellular AK activity)

With `C=C1[C@H]2C[C@@]3([C@@H]1O)[C@@H](C[C@@H]2O)[C@]12[C@@H]4C[C@H]3[C@H]1N(CC)C[C@]4(C)CC[C@@H]2O` [Napelline] the “AK-based Prestwick Library Screening Results, P. aeruginosa (fold increase in extracellular AK activity)” value ([1]; […]) was 1.1, the “AK-based Prestwick Library Screening Results, K. pneumoniae (fold increase in extracellular AK activity)” value ([2]; […]) was 1.0 and the “AK-based Prestwick Library Screening Results, E. faecium (fold increase in extracellular AK activity)” value ([3]; […]) was 1.0. For the same molecule, the “AK-based Prestwick Library Screening Results, E. coli (fold increase in extracellular AK activity)” value ([4]; […]) was 1.3, the “AK-based Prestwick Library Screening Results, A. baumannii (fold increase in extracellular AK activity)” value ([5]; […]) was 1.0 and the “AK-based Prestwick Library Screening Results, S. aureus (fold increase in extracellular AK activity)” value ([6]; […]) was 1.4. The “AK-based Prestwick Library Screening Results, E. cloacae (fold increase in extracellular AK activity)” value ([7]; […]) was 3.6.
`c1ccc2c(CC3=NCCN3)cccc2c1` [Naphazoline hydrochloride] gave a fold induction at 50 µM [1, 8] of 1, a fold induction at 50 µM [2, 9] of 0.8 and a fold induction at 50 µM [3, 10] of 1.1. It also gave a fold induction at 50 µM [4, 11] of 1.3, a fold induction at 50 µM [5, 12] of 1.1 and a fold induction at 50 µM [6, 13] of 1. For the same molecule, the fold induction at 50 µM [7, 14] was 1.5.
`COc1ccc2cc([C@H](C)C(=O)O)ccc2c1` [Naproxen] showed a fold induction at 50 µM [1, 8] of 1, a fold induction at 50 µM [2, 9] of 0.9 and a fold induction at 50 µM [3, 10] of 1. For the same molecule, the fold induction at 50 µM [4, 11] was 1.2, the fold induction at 50 µM [5, 12] was 1.1 and the fold induction at 50 µM [6, 13] was 0.8. It also gave a fold induction at 50 µM [7, 14] of 1.4.
For `O=C1C[C@@H](c2ccc(O)cc2)Oc2cc(O)cc(O)c21` [Naringenine], the fold induction at 50 µM [1, 15] was 1, the fold induction at 50 µM [2, 16] was 0.9 and the fold induction at 50 µM [3, 17] was 0.9. For the same molecule, the fold induction at 50 µM [4, 18] was 1.1, the fold induction at 50 µM [5, 19] was 1.2 and the fold induction at 50 µM [6, 20] was 0.5. For the same molecule, the fold induction at 50 µM [7, 21] was 1.5.
`C[C@@H]1O[C@@H](O[C@H]2[C@H](Oc3cc(O)c4c(c3)O[C@H](c3ccc(O)cc3)CC4=O)O[C@H](CO)[C@@H](O)[C@@H]2O)[C@H](O)[C@H](O)[C@H]1O` [Naringin hydrate] was tested, and the fold induction at 50 µM [1, 15] was 1.3, the fold induction at 50 µM [2, 16] was 0.9 and the fold induction at 50 µM [3, 17] was 1. The fold induction at 50 µM [4, 18] was 1.3, the fold induction at 50 µM [5, 19] was 1.2 and the fold induction at 50 µM [6, 20] was 1.2. It also gave a fold induction at 50 µM [7, 21] of 1.2.
In the case of `CN1CCOC(c2ccccc2)c2ccccc2C1` (stereo not drawn) [Nefopam hydrochloride], the fold induction at 50 µM ([1]; planktonic P. aeruginosa, 384-well, cutoff for positive-scoring molecules 3-fold increase, read-out: AK-based Prestwick Library Screening Results: P. aeruginosa (increase in extracellular AK activity)) was 1.2, the fold induction at 50 µM ([2]; planktonic K. pneumoniae, 384-well, cutoff for positive-scoring molecules 3-fold increase, read-out: AK-based Prestwick Library Screening Results: K. pneumoniae (increase in extracellular AK activity)) was 0.9 and the fold induction at 50 µM ([3]; planktonic E. faecium, 384-well, cutoff for positive-scoring molecules 3-fold increase, read-out: AK-based Prestwick Library Screening Results: E. faecium (increase in extracellular AK activity)) was 1. It also gave a fold induction at 50 µM ([4]; planktonic E. coli, 384-well, cutoff for positive-scoring molecules 3-fold increase, read-out: AK-based Prestwick Library Screening Results: E. coli (increase in extracellular AK activity)) of 1.2, a fold induction at 50 µM ([5]; planktonic A. baumannii, 384-well, cutoff for positive-scoring molecules 3-fold increase, read-out: AK-based Prestwick Library Screening Results: A. baumannii (increase in extracellular AK activity)) of 1.4 and a fold induction at 50 µM ([6]; planktonic S. aureus, 384-well, cutoff for positive-scoring molecules 3-fold increase, read-out: AK-based Prestwick Library Screening Results: S. aureus (increase in extracellular AK activity)) of 1.1. It also gave a fold induction at 50 µM ([7]; planktonic E. cloacae, 384-well, cutoff for positive-scoring molecules 3-fold increase, read-out: AK-based Prestwick Library Screening Results: E. cloacae (increase in extracellular AK activity)) of 1.4.
With `NC[C@@H]1O[C@H](O[C@H]2[C@@H](O)[C@H](O[C@@H]3[C@@H](O)[C@H](N)C[C@H](N)[C@H]3O[C@H]3O[C@H](CN)[C@@H](O)[C@H](O)[C@H]3N)O[C@@H]2CO)[C@H](N)[C@@H](O)[C@@H]1O.O=S(=O)(O)O` [Neomycin sulfate] the “AK-based Prestwick Library Screening Results: P. aeruginosa (increase in extracellular AK activity)” value ([1]; planktonic P. aeruginosa, 384-well, cutoff for positive-scoring molecules 3-fold increase) was 0.9, the “AK-based Prestwick Library Screening Results: K. pneumoniae (increase in extracellular AK activity)” value ([2]; planktonic K. pneumoniae, 384-well, cutoff for positive-scoring molecules 3-fold increase) was 1.0 and the “AK-based Prestwick Library Screening Results: E. faecium (increase in extracellular AK activity)” value ([3]; planktonic E. faecium, 384-well, cutoff for positive-scoring molecules 3-fold increase) was 1.0. The “AK-based Prestwick Library Screening Results: E. coli (increase in extracellular AK activity)” value ([4]; planktonic E. coli, 384-well, cutoff for positive-scoring molecules 3-fold increase) was 1.2, the “AK-based Prestwick Library Screening Results: A. baumannii (increase in extracellular AK activity)” value ([5]; planktonic A. baumannii, 384-well, cutoff for positive-scoring molecules 3-fold increase) was 1.4 and the “AK-based Prestwick Library Screening Results: S. aureus (increase in extracellular AK activity)” value ([6]; planktonic S. aureus, 384-well, cutoff for positive-scoring molecules 3-fold increase) was 1.1. For the same molecule, the “AK-based Prestwick Library Screening Results: E. cloacae (increase in extracellular AK activity)” value ([7]; planktonic E. cloacae, 384-well, cutoff for positive-scoring molecules 3-fold increase) was 1.3.
With `CN(C)C(=O)Oc1cccc([N+](C)(C)C)c1` [Neostigmine bromide] the fold induction at 50 µM ([1]; planktonic, […], read-out: AK-based Prestwick Library Screening Results, P. aeruginosa (fold increase in extracellular AK activity)) was 1.1, the fold induction at 50 µM ([2]; planktonic, […], read-out: AK-based Prestwick Library Screening Results, K. pneumoniae (fold increase in extracellular AK activity)) was 1 and the fold induction at 50 µM ([3]; planktonic, […], read-out: AK-based Prestwick Library Screening Results, E. faecium (fold increase in extracellular AK activity)) was 1. The fold induction at 50 µM ([4]; planktonic, […], read-out: AK-based Prestwick Library Screening Results, E. coli (fold increase in extracellular AK activity)) was 1.3, the fold induction at 50 µM ([5]; planktonic, […], read-out: AK-based Prestwick Library Screening Results, A. baumannii (fold increase in extracellular AK activity)) was 1.3 and the fold induction at 50 µM ([6]; planktonic, […], read-out: AK-based Prestwick Library Screening Results, S. aureus (fold increase in extracellular AK activity)) was 1.2. The fold induction at 50 µM ([7]; planktonic, […], read-out: AK-based Prestwick Library Screening Results, E. cloacae (fold increase in extracellular AK activity)) was 1.2.
With `O=C(O)c1cccnc1` [Niacin] the fold induction at 50 µM ([1]; planktonic, cutoff for positive-scoring molecules 3-fold increase, read-out: AK-based Prestwick Library Screening Results, P. aeruginosa (fold increase in extracellular AK activity)) was 0.6, the fold induction at 50 µM ([2]; planktonic, cutoff for positive-scoring molecules 3-fold increase, read-out: AK-based Prestwick Library Screening Results, K. pneumoniae (fold increase in extracellular AK activity)) was 0.5 and the fold induction at 50 µM ([3]; planktonic, cutoff for positive-scoring molecules 3-fold increase, read-out: AK-based Prestwick Library Screening Results, E. faecium (fold increase in extracellular AK activity)) was 0.9. For the same molecule, the fold induction at 50 µM ([4]; planktonic, cutoff for positive-scoring molecules 3-fold increase, read-out: AK-based Prestwick Library Screening Results, E. coli (fold increase in extracellular AK activity)) was 0.7, the fold induction at 50 µM ([5]; planktonic, cutoff for positive-scoring molecules 3-fold increase, read-out: AK-based Prestwick Library Screening Results, A. baumannii (fold increase in extracellular AK activity)) was 0.6 and the fold induction at 50 µM ([6]; planktonic, cutoff for positive-scoring molecules 3-fold increase, read-out: AK-based Prestwick Library Screening Results, S. aureus (fold increase in extracellular AK activity)) was 0.6. The fold induction at 50 µM ([7]; planktonic, cutoff for positive-scoring molecules 3-fold increase, read-out: AK-based Prestwick Library Screening Results, E. cloacae (fold increase in extracellular AK activity)) was 0.7.
